Source: patent US20260138962A1, “SYNTHESIS OF DERIVATIVES OF SIPH[…] THERAPEUTIC USE THEREOF” (priority 2022, published 2026)
In brackets after ≈: the same amount, converted by molar mass.

Columns and labels:
Experiment in all cases: microbe, parasite or virus in culture
Assay type in all cases: cell-based
SARS-CoV-2 Beta variant = conditions: Severe acute respiratory syndrome coronavirus 2, Vero C1008
SARS-CoV-2 Delta variant = conditions: Severe acute respiratory syndrome coronavirus 2, Vero C1008
[1] = tested on: SARS-CoV-2 Wuhan isolate (wild type); conditions: Severe acute respiratory syndrome coronavirus 2, Vero C1008; positive control at 3.77 μg/ml; […]
[2] = positive control at 3.77 μg/ml, […]

| SMILES | IC50 (SARS-CoV-2 Beta variant; Beta strain, in vitro) | inhibition at 0.5 µg/mL (SARS-CoV-2 Beta variant; Beta, 0.5 μg/ml, Vero E6 cells) | inhibition at 2 µg/mL (SARS-CoV-2 Beta variant; Beta, 2 μg/ml, Vero E6 cells) | inhibition at 5 µg/mL (SARS-CoV-2 Beta variant; Beta, 5 μg/ml, Vero E6 cells) | inhibition at 16 µg/mL (SARS-CoV-2 Beta variant; Beta, 16 μg/ml, Vero E6 cells) | inhibition at 50 µg/mL (SARS-CoV-2 Beta variant; Beta, 50 μg/ml, Vero E6 cells) | IC50 (SARS-CoV-2 Delta variant; Delta strain, in vitro) | inhibition at 0.5 µg/mL (SARS-CoV-2 Delta variant; Delta, 0.5 μg/ml, Vero E6 cells) | inhibition at 2 µg/mL (SARS-CoV-2 Delta variant; Delta, 2 μg/ml, Vero E6 cells) | inhibition at 5 µg/mL (SARS-CoV-2 Delta variant; Delta, 5 μg/ml, Vero E6 cells) | inhibition at 16 µg/mL (SARS-CoV-2 Delta variant; Delta, 16 μg/ml, Vero E6 cells) | inhibition at 50 µg/mL (SARS-CoV-2 Delta variant; Delta, 50 μg/ml, Vero E6 cells) | inhibition at 3.77 µg/mL (SARS-CoV-2 Beta variant; [2]) | inhibition at 3.77 µg/mL [1] | inhibition at 3.77 µg/mL (SARS-CoV-2 Delta variant; [2]) |
| --- | --- | --- | --- | --- | --- | --- | --- | --- | --- | --- | --- | --- | --- | --- | --- |
| CC1=C2C[C@@H]3[C@@H](C)C=CC(=O)[C@@]3(C)C[C@@]2(O)OC1=O [HLS, (4aR,5S,8aS,9aR)-9a-hydroxy-3,5,8a-trimethyl-4a,5,9,9a-tetrahydronaphtho[2,3-b]furan-2,8(4H,8aH)-dione] | 8.93 mg/L (≈ 34 µM) | 25% | 25% | 50% | 75% | 100% | 6.15 mg/L (≈ 23.4 µM) | 0% | 25% | 50% | 75% | 100% |  |  |  |
| CCC(CC)COC(=O)[C@H](C)N[P@](=O)(OC[C@H]1O[C@@](C#N)(c2ccc3c(N)ncnn23)[C@H](O)[C@@H]1O)Oc1ccccc1 [Remdesivir, reference compound] |  |  |  |  |  |  |  |  |  |  |  |  | 100% | 100% | 100% |
